# Reference: US10119168B2, “Methods for the treatment of kidney fibrosis” (priority 2014, dated 2018)
# System: mouse kidney
# Experiment: Folic acid nephropathy model, High dose vs Low dose FA (histology, qRT-PCR)
# Details: High dose group compared to Low dose group, day 14
# Protocol: Mice were sacrificed at 1, 2, 3, 7 and 14 days following administration. […] All mice were sacrificed at 14 days.
# Formalin fixed, paraffin embedded kidney sections were Masson Trichrome's stained and evaluated by a renal pathologist under a light microscope in blinded fashion relative to sample group. Percent area of fibrosis relative to the total section area was evaluated. Sirius red staining of the […] sections was performed at the Michigan State University Investigative Histopathology Laboratory.
# Total RNA was extracted from frozen kidney tissue using TRIzol reagent (Invitrogen). Following RNA concentration measurement by NanoDrop spectrophotometer (Thermo Fischer Scientific), 1 μg RNA was used for cDNA preparation using QuantiTect Reverse Transcription Kit from Qiagen (Valencia, Calif.). qRT-PCR using QuantiFast SYBR Green PCR Kit (Qiagen) was performed in 384-well plates on an Applied Biosystems 7900HT Fast Real-Time PCR System instrument with the following temperature profile: 3 min enzyme activation at 95° C. followed by 40 cycles of 95° C. for 10 s, and 55° C. for 30 s. Primer pairs used are listed in Supplementary Table 1. Gapdh was used as reference gene for normalization. The SDS 2.4 software (Applied Biosystems) was used to compute the threshold cycle (Cq) and the relative expression for an mRNA was assessed using the 2^−ΔCq method.
structure (smiles),measurement,value
"Nc1nc2ncc(CNc3ccc(C(=O)N[C@@H](CCC(=O)O)C(=O)O)cc3)nc2c(=O)[nH]1 [FA, folic acid]",candidate fibrosis markers mRNA levels,Nine out of ten candidate fibrosis markers showed significantly (p<0.05) higher mRNA levels
